Data: patent US10413535B2, “Pharmaceutical compositions comprising an integrin ALPHA4 antagonist for use in treating ocular inflammatory conditions” (AXEROVISION, INC., priority 2015, dated 2019)
Entries after “also recorded” stand apart in the source; their conditions may differ.

System: C57BL/6 mice subjected to desiccating stress
Assay: Corneal OGD staining in murine desiccating stress model
Type: in vivo, mouse
Description: Female C57BL/6 mice, aged 6 to 8 weeks, were subjected to DS for 5 days (DS5) as described previously (de Paiva et al., 2006b; Niederkorn et al., 2006). Topical bilateral treatment with 1 eye drop per eye (2 μL volume) or subcutaneous injection (4 μL volume), 2 times per day, was initiated on day 1 concurrently with DS and continued through day 4. Treatment with the compound of formula I or dexamethasone phosphate 0.1% was compared to correspondingly treated vehicle controls. Mice were randomized to receive one of the test articles. Control mice were kept in a non-stressed (NS) environment maintained at 50-75% relative humidity without exposure to airflow or scopolamine and were not treated with test or control article. Treatment effects were assessed on corneal staining with Oregon Green Dextran (OGD); expression of inflammatory markers in ocular surface tissues by real time PCR; cell population analysis in draining cervical lymph nodes by FACS analysis; conjunctival T cell infiltration by immunohistochemistry.
On the morning of the 5th day, mice received one s.c. dose of scopolamine. Two hours later corneal staining was assessed using Oregon Green Dextran (OGD-488), which is a conjugated fluorescent dye of a 70 kDa molecular size (Invitrogen-Molecular Probes) as previously described (de Paiva et al., 2006b). The procedure consisted of instillation of 0.5 μL of OGD on the cornea using a glass capillary pipette, 1 minute before euthanasia. Mice were euthanized by inhalation of isoflurane gas followed by cervical dislocation. Eyes were then rinsed with 2 mL of BSS. Excess liquid was carefully blotted from the ocular surface with filter papers without touching the cornea. Digital pictures of both eyes were taken under 470 nm excitation and 488 nm emission wave lengths using a Nikon SMZ-1500 stereo microscope, with an exposure time of 2 seconds. Both eyes from each animal were evaluated; the right eye always first followed by the left eye. The mean intensity in the central cornea was evaluated from digital images using NIS Elements (version 3.0) by placing a fixed region of interest (a 2-mm diameter circle) on the central cornea. The mean intensity of the fluorescence was read by the software and stored in a database (Excel, Microsoft). This fluorescence measurement in the central ring was done independently by 2 masked observers, for each mouse eye. By the conclusion of the experiment, results were averaged from both observers using all data collected during all study weeks (Excel, Microsoft). Results are presented as geometric mean±95% confidence interval of gray levels.
Due to skewed distribution of OGD data, the analysis was done on the log 10 scale to make the data more normally distributed. Log 10 OGD data was averaged across two observers and the left and right eyes. The mixed effects ANOVA model included treatment group as a fixed effect and week as a random effect. 95% and 99% confidence intervals were constructed for the disease (5 day DS vs untreated group kept in separate vivarium) and compound treatment effects (treatment vs vehicle). As these comparisons were all pre-planned (comparing each treatment to its vehicle group), no adjustment was made for multiplicity. […] T cell density was calculated for each section and averaged across sections for each animal. […]

With `Cc1ccccc1OCC(=O)N[C@@H](CC(C)C)C(=O)N[C@@H](Cc1ccc(OC(=O)N2CCC(C(N)=O)CC2)cc1)C(=O)O` [GW559090, (2S)-3-[4-({[4-(Aminocarbonyl)-1-piperidinyl]carbonyl}oxy)phenyl]-2-[((2S)-4-methyl-2-{[2-(2-methylphenoxy)acetyl]amino}pentanoyl)amino]propanoic acid] the “OGD intensity score (corneal barrier disruption)” value (subcutaneous 120 μg 2 times per day, 5 days DS) was “not observed”, the “OGD intensity score (corneal staining / corneal barrier disruption)” value (topical bilateral 2 times per day, 5 days DS, vs vehicle (GW559090 1-30 mg/mL; Dex 0.1%), listed as compound of formula I) was “significant decrease; also recorded: significantly decreased; also recorded: dose-dependently prevents” and the “Most efficacious concentration on OGD intensity score” value (topical, 1 to 30 mg/mL investigated) was 30 mg/mL.
